Measurements from PubChem BioAssay AID248 (DTP/NCI, 2004).
Several values for one entry are separate records, joined by “and”; a condition that tells them apart may be missing. Identical values can stand only once. Inconclusive results and toxic doses are left out. Peptide text beside a SMILES is read from it. * marks the point of attachment. Cbz = O=C(OCc1ccccc1)*; OtBu = CC(C)(C)O*

Tested on: L1210 leukemia ip in BDF1 mice, survival T/C
Assay: NCI In Vivo Anticancer Drug Screen. Data for tumor model L1210 Leukemia (intraperitoneal) in B6D2F1 (BDF1) mice
Conditions: endpoint: mean survival time, higher = longer survival
In short: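 Tumor was transplanted into mice, which were then dosed with test compound or vehicle alone. Survival was recorded for each group, and the treated figure was expressed relative to the control figure.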

[1] = dose: 100.0 mg/kg/injection, schedule: Q01DX001 (ip), vehicle: saline
[2] = dose: 200.0 mg/kg/injection, schedule: Q01DX001 (ip), vehicle: saline
[3] = dose: 400.0 mg/kg/injection, schedule: Q01DX001 (ip), vehicle: saline
[4] = dose: 100.0 mg/kg/injection, schedule: Q04DX003 (ip), vehicle: saline with Tween-80
[5] = dose: 200.0 mg/kg/injection, schedule: Q04DX003 (ip), vehicle: saline with Tween-80
[6] = dose: 400.0 mg/kg/injection, schedule: Q04DX003 (ip), vehicle: saline with Tween-80
[7] = dose: 100.0 mg/kg/injection, schedule: Q01DX009 (ip), vehicle: Klucel (hydroxypropylcellulose) (HPC)
[8] = dose: 200.0 mg/kg/injection, schedule: Q01DX009 (ip), vehicle: Klucel (hydroxypropylcellulose) (HPC)
[9] = dose: 100.0 mg/kg/injection, schedule: Q01DX009 (ip), vehicle: saline with Tween-80
[10] = dose: 200.0 mg/kg/injection, schedule: Q01DX009 (ip), vehicle: saline with Tween-80
[11] = dose: 400.0 mg/kg/injection, schedule: Q01DX009 (ip), vehicle: saline with Tween-80
[12] = dose: 400.0 mg/kg/injection, schedule: Q01DX009 (ip), vehicle: Klucel (hydroxypropylcellulose) (HPC)

SMILES: CS/C(N)=N\N=C/c1ccccc1
- T/C (dose: 6.25 mg/kg/injection, schedule: Q01DX009 (ip), vehicle: saline): 102 % of control
- T/C (dose: 12.5 mg/kg/injection, schedule: Q01DX009 (ip), vehicle: saline): 102 % of control
- T/C (dose: 25.0 mg/kg/injection, schedule: Q01DX001 (ip), vehicle: saline): 117 % of control
- T/C (dose: 25.0 mg/kg/injection, schedule: Q01DX009 (ip), vehicle: saline): 102 % of control
- T/C (dose: 25.0 mg/kg/injection, schedule: Q04DX003 (ip), vehicle: saline): 97 % of control
- T/C (dose: 50.0 mg/kg/injection, schedule: Q01DX001 (ip), vehicle: saline): 97 % of control
- T/C [1]: 102 % of control and 105 % of control

SMILES: Oc1ccc(N=Cc2ccccc2O)cc1
- T/C [1]: 90 % of control
- T/C (dose: 116.0 mg/kg/injection, schedule: Q01DX015 (ip), vehicle: steriod suspending solution): 108 % of control
- T/C (dose: 175.0 mg/kg/injection, schedule: Q01DX015 (ip), vehicle: steriod suspending solution): 123 % of control
- T/C (dose: 178.0 mg/kg/injection, schedule: Q01DX001 (ip), vehicle: steriod suspending solution): 100 % of control
- T/C [2]: 207 % of control
- T/C (dose: 267.0 mg/kg/injection, schedule: Q01DX001 (ip), vehicle: steriod suspending solution): 103 % of control
- T/C (dose: 270.0 mg/kg/injection, schedule: Q01DX Z (ip), vehicle: carboxymethylcellulose (CMC)): 104 % of control
- T/C [3]: 260 % of control
- T/C (dose: 400.0 mg/kg/injection, schedule: Q01DX001 (ip), vehicle: steriod suspending solution): 101 % of control
- T/C (dose: 400.0 mg/kg/injection, schedule: Q01DX Z (ip), vehicle: carboxymethylcellulose (CMC)): 115 % of control
- T/C (dose: 600.0 mg/kg/injection, schedule: Q01DX001 (ip), vehicle: steriod suspending solution): 105 % of control

SMILES: O=Cc1ccc2c(c1)c1ccccc1n2C1OC(CO)C(O)C(O)C1O (configuration not stated)
- T/C (dose: 60.0 mg/kg/injection, schedule: Q04DX002 (ip), vehicle: DMSO): 102 % of control
- T/C (dose: 120.0 mg/kg/injection, schedule: Q04DX002 (ip), vehicle: DMSO): 97 % of control

SMILES: O=Cc1ccc([N+](=O)[O-])o1
- T/C (dose: 10.0 mg/kg/injection, schedule: Q01DX001 (ip), vehicle: saline): 94 % of control
- T/C (dose: 12.5 mg/kg/injection, schedule: Q04DX002 (ip), vehicle: other): 102 % of control
- T/C (dose: 20.0 mg/kg/injection, schedule: Q01DX001 (ip), vehicle: saline): 100 % of control
- T/C (dose: 25.0 mg/kg/injection, schedule: Q04DX002 (ip), vehicle: other): 97 % of control
- T/C (dose: 40.0 mg/kg/injection, schedule: Q01DX001 (ip), vehicle: saline): 94 % of control

SMILES: CC(C)(CCN)[N+](=O)[O-]
- T/C [1]: 96 % of control
- T/C [2]: 96 % of control
- T/C [3]: 102 % of control

SMILES: COc1ccc(-c2sc(N)c(C#N)c2C)cc1OC
- T/C (dose: 100.0 mg/kg/injection, schedule: Q01DX001 (ip), vehicle: saline with Tween-80): 98 % of control
- T/C [4]: 93 % of control and 97 % of control
- T/C (dose: 200.0 mg/kg/injection, schedule: Q01DX001 (ip), vehicle: saline with Tween-80): 93 % of control
- T/C [5]: 95 % of control and 90 % of control
- T/C (dose: 400.0 mg/kg/injection, schedule: Q01DX001 (ip), vehicle: saline with Tween-80): 96 % of control
- T/C [6]: 97 % of control and 102 % of control

SMILES: CSc1nc2ccccc2s1
- T/C [7]: 97 % of control
- T/C (dose: 100.0 mg/kg/injection, schedule: Q04DX003 (ip), vehicle: Klucel (hydroxypropylcellulose) (HPC)): 105 % of control
- T/C [8]: 100 % of control
- T/C (dose: 200.0 mg/kg/injection, schedule: Q04DX003 (ip), vehicle: Klucel (hydroxypropylcellulose) (HPC)): 104 % of control
- T/C (dose: 400.0 mg/kg/injection, schedule: Q04DX003 (ip), vehicle: Klucel (hydroxypropylcellulose) (HPC)): 95 % of control

SMILES: O=S(=O)(O)/C(=C\c1ccccc1)c1ccccc1 (tested in a mixture with another compound)
- T/C [1]: 103 % of control
- T/C (dose: 100.0 mg/kg/injection, schedule: Q04DX003 (ip), vehicle: other): 106 % of control
- T/C [2]: 104 % of control
- T/C (dose: 200.0 mg/kg/injection, schedule: Q04DX003 (ip), vehicle: other): 106 % of control
- T/C (dose: 264.0 mg/kg/injection, schedule: Q01DX001 (ip), vehicle: other): 108 % of control
- T/C (dose: 400.0 mg/kg/injection, schedule: Q01DX001 (ip), vehicle: other): 94 % of control
- T/C [3]: 115 % of control

SMILES: CCCCCCCCC(=O)N1CCN(C(=O)CCCCCCCC)C1
- T/C (dose: 30.0 mg/kg/injection, schedule: Q01DX001 (ip), vehicle: saline): 96 % of control
- T/C [1]: 96 % of control
- T/C (dose: 300.0 mg/kg/injection, schedule: Q01DX001 (ip), vehicle: saline): 91 % of control

SMILES: Cc1cc[n+]([O-])cc1C
- T/C [7]: 101 % of control
- T/C (dose: 100.0 mg/kg/injection, schedule: Q04DX002 (ip), vehicle: Klucel (hydroxypropylcellulose) (HPC)): 98 % of control
- T/C [8]: 96 % of control
- T/C (dose: 200.0 mg/kg/injection, schedule: Q04DX002 (ip), vehicle: Klucel (hydroxypropylcellulose) (HPC)): 101 % of control

SMILES: ClC1(Cl)CC2CC1C1C3CC(C4OC34)C21 (configuration not stated)
- T/C (dose: 50.0 mg/kg/injection, schedule: Q01DX001 (ip), vehicle: carboxymethylcellulose (CMC)): 94 % of control and 119 % of control
- T/C (dose: 100.0 mg/kg/injection, schedule: Q01DX001 (ip), vehicle: carboxymethylcellulose (CMC)): 94 % of control
- T/C (dose: 200.0 mg/kg/injection, schedule: Q01DX001 (ip), vehicle: carboxymethylcellulose (CMC)): 105 % of control
- T/C (dose: 400.0 mg/kg/injection, schedule: Q01DX001 (ip), vehicle: carboxymethylcellulose (CMC)): 98 % of control

SMILES: CCC(C)(S(=O)(=O)CC)S(=O)(=O)CC
- T/C [9]: 105 % of control
- T/C [10]: 102 % of control
- T/C [11]: 100 % of control

SMILES: O=C(O)C(=O)Cc1cccc(Cl)c1[N+](=O)[O-]
- T/C (dose: 75.0 mg/kg/injection, schedule: Q04DX003 (ip), vehicle: saline): 96 % of control
- T/C (dose: 150.0 mg/kg/injection, schedule: Q04DX003 (ip), vehicle: saline): 102 % of control
- T/C (dose: 300.0 mg/kg/injection, schedule: Q04DX003 (ip), vehicle: saline): 98 % of control

SMILES: CCN1C(N)=NC(N)=NC1c1ccccc1 (configuration not stated)
- T/C (dose: 25.0 mg/kg/injection, schedule: Q01DX001 (ip), vehicle: Klucel (hydroxypropylcellulose) (HPC)): 103 % of control
- T/C (dose: 50.0 mg/kg/injection, schedule: Q01DX001 (ip), vehicle: Klucel (hydroxypropylcellulose) (HPC)): 97 % of control
- T/C (dose: 100.0 mg/kg/injection, schedule: Q01DX001 (ip), vehicle: Klucel (hydroxypropylcellulose) (HPC)): 102 % of control and 103 % of control

SMILES: NC(=O)CCC(NC(=O)Cc1ccccc1)C(=O)O (configuration not stated)
- T/C (dose: 18.75 mg/kg/injection, schedule: Q01DX001 (ip), vehicle: Klucel (hydroxypropylcellulose) (HPC)): 92 % of control
- T/C (dose: 37.5 mg/kg/injection, schedule: Q01DX001 (ip), vehicle: Klucel (hydroxypropylcellulose) (HPC)): 100 % of control
- T/C (dose: 75.0 mg/kg/injection, schedule: Q01DX001 (ip), vehicle: Klucel (hydroxypropylcellulose) (HPC)): 97 % of control

SMILES: CN(Cc1ccccc1)C(=O)c1cccc([N+](=O)[O-])c1
- T/C [7]: 98 % of control
- T/C [8]: 100 % of control
- T/C [12]: 95 % of control

SMILES: COC(=O)c1cccc(C(=O)CC(=O)c2ccccc2)c1
- T/C [7]: 90 % of control
- T/C [8]: 95 % of control
- T/C [12]: 88 % of control

SMILES: C=CCc1ccc(OCCOCCNC2C(C)CCCC2(C)C)c(OC)c1 (configuration not stated)
- T/C (dose: 5.0 mg/kg/injection, schedule: Q01DX009 (ip), vehicle: Klucel (hydroxypropylcellulose) (HPC)): 101 % of control
- T/C (dose: 5.0 mg/kg/injection, schedule: Q04DX003 (ip), vehicle: Klucel (hydroxypropylcellulose) (HPC)): 96 % of control
- T/C (dose: 10.0 mg/kg/injection, schedule: Q01DX009 (ip), vehicle: Klucel (hydroxypropylcellulose) (HPC)): 100 % of control
- T/C (dose: 10.0 mg/kg/injection, schedule: Q04DX003 (ip), vehicle: Klucel (hydroxypropylcellulose) (HPC)): 90 % of control
- T/C (dose: 20.0 mg/kg/injection, schedule: Q01DX009 (ip), vehicle: Klucel (hydroxypropylcellulose) (HPC)): 97 % of control
- T/C (dose: 20.0 mg/kg/injection, schedule: Q04DX003 (ip), vehicle: Klucel (hydroxypropylcellulose) (HPC)): 96 % of control

SMILES: COC(=O)C(CCC(=O)OC(C)(C)C)NC(=O)C(NC(=O)OCc1ccccc1)C(C)C (stereo not drawn) (Cbz-Val-Glu(OtBu)-OMe; configuration not given here)
- T/C [9]: 98 % of control
- T/C [4]: 92 % of control
- T/C [10]: 89 % of control
- T/C [5]: 95 % of control
- T/C [11]: 98 % of control
- T/C [6]: 95 % of control
